# Source: PubChem BioAssay AID328 (DTP/NCI, 2004)
# Toxic doses and inconclusive results are not listed.
# Test system: BDF1 mice, P388 leukemia ip, median survival T/C
# Assay: NCI In Vivo Anticancer Drug Screen. Data for tumor model P388 Leukemia (intraperitoneal) in B6D2F1 (BDF1) mice
# Settings: endpoint: median survival time, higher = longer survival
# In short: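 Compound-treated tumour-bearing mice were compared with vehicle-treated controls. Survival was recorded, and the value is the treated-group measurement divided by the control-group measurement (T/C).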
# [1] = dose: 25.0 mg/kg/injection, schedule: Q01DX009 (ip), vehicle: saline
# [2] = dose: 50.0 mg/kg/injection, schedule: Q01DX009 (ip), vehicle: saline
# [3] = dose: 100.0 mg/kg/injection, schedule: Q04DX003 (ip), vehicle: saline
# [4] = dose: 50.0 mg/kg/injection, schedule: Q01DX009 (ip), vehicle: saline with Tween-80
# [5] = dose: 100.0 mg/kg/injection, schedule: Q01DX009 (ip), vehicle: saline with Tween-80
smiles,measurement,setting,value
ClCC[N-]CC[N-]CCCl.ClCC[N-]CC[N-]CCCl.[O-][Cl+3]([O-])([O-])O.[Zn+2],T/C,"dose: 2.5 mg/kg/injection, schedule: Q04DX003 (ip), vehicle: Klucel (hydroxypropylcellulose) (HPC)",105 % of control
same,T/C,"dose: 5.0 mg/kg/injection, schedule: Q03DX003 (ip), vehicle: saline",110 % of control
same,T/C,"dose: 5.0 mg/kg/injection, schedule: Q04DX003 (ip), vehicle: Klucel (hydroxypropylcellulose) (HPC)",112 % of control
same,T/C,"dose: 10.0 mg/kg/injection, schedule: Q04DX003 (ip), vehicle: Klucel (hydroxypropylcellulose) (HPC)",108 % of control
same,T/C,"dose: 20.0 mg/kg/injection, schedule: Q04DX003 (ip), vehicle: Klucel (hydroxypropylcellulose) (HPC)",124 % of control
same,T/C,"dose: 40.0 mg/kg/injection, schedule: Q03DX003 (ip), vehicle: saline",75 % of control
same,T/C,"dose: 40.0 mg/kg/injection, schedule: Q04DX003 (ip), vehicle: Klucel (hydroxypropylcellulose) (HPC)",154 % of control
same,T/C,"dose: 80.0 mg/kg/injection, schedule: Q03DX003 (ip), vehicle: saline",33 % of control
CC#CC#C/C=C1\OC2(CCCCO2)C(O)C1OC(=O)CC(C)C (stereo not given),T/C,"dose: 10.0 mg/kg/injection, schedule: Q01DX009 (ip), vehicle: Klucel (hydroxypropylcellulose) (HPC)",100 % of control
same,T/C,"dose: 20.0 mg/kg/injection, schedule: Q01DX009 (ip), vehicle: Klucel (hydroxypropylcellulose) (HPC)",102 % of control
same,T/C,"dose: 40.0 mg/kg/injection, schedule: Q01DX009 (ip), vehicle: Klucel (hydroxypropylcellulose) (HPC)",111 % of control
COc1ccc(CC2c3cc(OC)c(OC)cc3CCN2C(C)=O)cc1OC (stereo not given),T/C,"dose: 50.0 mg/kg/injection, schedule: Q01DX005 (ip), vehicle: saline with Tween-80",90 % of control
same,T/C,"dose: 200.0 mg/kg/injection, schedule: Q01DX005 (ip), vehicle: saline with Tween-80",88 % of control
c1cc2c3c(c1)ncn3CCC2,T/C,"dose: 25.0 mg/kg/injection, schedule: Q04DX003 (ip), vehicle: other",100 % of control
same,T/C,"dose: 50.0 mg/kg/injection, schedule: Q04DX003 (ip), vehicle: other",100 % of control
same,T/C,"dose: 100.0 mg/kg/injection, schedule: Q04DX003 (ip), vehicle: other",95 % of control
CC(O)(c1ccc(Br)cc1)C(c1ccccc1)c1ccccn1 (stereo not given),T/C,[1],104 % of control
same,T/C,[2],100 % of control
same,T/C,"dose: 100.0 mg/kg/injection, schedule: Q01DX009 (ip), vehicle: saline",86 % of control
same,T/C,[3],111 % of control
same,T/C,"dose: 200.0 mg/kg/injection, schedule: Q01DX009 (ip), vehicle: saline",111 % of control
same,T/C,"dose: 200.0 mg/kg/injection, schedule: Q04DX003 (ip), vehicle: saline",104 % of control
same,T/C,"dose: 400.0 mg/kg/injection, schedule: Q01DX009 (ip), vehicle: saline",101 % of control
same,T/C,"dose: 400.0 mg/kg/injection, schedule: Q04DX003 (ip), vehicle: saline",109 % of control
O=C(N=Nc1c(O)[nH]c2c(Cl)cc(Cl)cc12)c1ccccc1O,T/C,[4],90 % of control
same,T/C,[5],87 % of control
same,T/C,"dose: 200.0 mg/kg/injection, schedule: Q01DX009 (ip), vehicle: saline with Tween-80",96 % of control
Nc1cc2nnc(-c3ccccc3)c(-c3ccccc3)n2n1,T/C,"dose: 100.0 mg/kg/injection, schedule: Q04DX002 (ip), vehicle: saline with Tween-80",89 % of control
same,T/C,"dose: 400.0 mg/kg/injection, schedule: Q04DX002 (ip), vehicle: saline with Tween-80",86 % of control
O=[N+]([O-])c1ccc(SCc2ccccc2)c2nonc12,T/C,[4],150 % of control
same,T/C,[5],153 % of control
Cc1ccc2c(c1)CCCN2C,T/C,[1],114 % of control
same,T/C,[2],114 % of control
same,T/C,"dose: 50.0 mg/kg/injection, schedule: Q04DX003 (ip), vehicle: saline",104 % of control
same,T/C,[3],104 % of control
O=C(Nc1cccc(C(F)(F)F)c1)Nc1ccc(Oc2ccc(Cl)cc2)cc1S(=O)(=O)O,T/C,"dose: 50.0 mg/kg/injection, schedule: Q04DX003 (ip), vehicle: saline sonified",104 % of control
same,T/C,"dose: 100.0 mg/kg/injection, schedule: Q04DX003 (ip), vehicle: saline sonified",100 % of control
Clc1cccc(N=c2cc3oc4ccccc4nc-3cc2Nc2cccc(Cl)c2)c1,T/C,"dose: 12.5 mg/kg/injection, schedule: Q01DX009 (ip), vehicle: saline with Tween-80",96 % of control
same,T/C,"dose: 25.0 mg/kg/injection, schedule: Q01DX009 (ip), vehicle: saline with Tween-80",99 % of control
same,T/C,[4],93 % of control
